Assay results as given in US10047151B2, “Methods for the treatment of cancer and inflammatory diseases using cereblon as a predictor” (Celgene Corporation, priority 2011, dated 2018).
Each block holds one molecule with its values, some of them ahead of it.

Assays:
[1] = test system: H929 cells; test: Cell cycle progression (cells in S phase) in siRNA-transfected H929 cells; assay type: cell-based; conditions: 72 h treatment
Protocol: The effect of CRBN in H929 cells was also evaluated. H929 cells were transfected with mock, negative control siRNA and CRBN-siRNA-7 for 24, 48, 72 and 96 h. Cells were treated 24 h after transfection with DMSO (0.1%), pomalidomide (1 μM), lenalidomide (10 μM) or 3-(5-amino-2-methyl-4-oxo-4H-quinazolin-3-yl)-piperidine-2,6-dione (“Compound B”) for 1, 2, 3 days and the effect on cell cycle and proliferation investigated. Lenalidomide, pomalidomide and Compound B induced a delay of cell cycle progression, measured as the decrease of the number of cells in S phase, in control mock and negative control siRNA-transfected cells after 72 h treatment (FIG. 2C). Knockdown of CRBN markedly abrogated immunomodulatory drugs-induced delay in cell cycle progression in H929 cells (FIG. 2C) from of 50 to 4% for lenalidomide, from 70 to 15% for pomalidomide, and from 65 to 22% for Compound B.

[2] = test system: pRb; test: pRb phosphorylation in H929 cells (Western blot); assay type: cell-based
[3] = test system: IRF4; test: IRF4 protein level in H929 cells (Western blot); assay type: cell-based
From the text: In H929 cells, the cell cycle arrest in G1 phase by the drugs coincides with a reduction of tumor suppressor, pRb, phosphorylation and the oncogene and myeloma survival factor IRF4.

[4] = test system: T cells; test: Ubiscan ubiquitinated peptide quantification in T cells; assay type: cell-based
From the text: The effects of lenalidomide and pomalidomide on protein ubiquination were investigated using CST Ubiscan technology. Treated samples were sent to Cell Signaling Technology for ubiquinated peptide enrichment and quantification by LC/MS/MS.

[5] = test system: IRF4; test: IRF4 protein expression in ABC-DLBCL cells (Western blot); assay type: cell-based; conditions: OCI-Ly3 cells; 1-3 day treatments
Protocol: (§1) Cells were treated with test compounds or 0.1% DMSO for indicated times. Following incubation, cells were collected, pelleted with centrifugation, and immediately lysed in 0.1 ml lysis buffer containing 10 mM Tris-HCl pH 8.0, 10 mM EDTA, 150 mM NaCl, 1% NP-40, 0.5% SDS, 1 mM DTT, 1 mM Na3VO4, plus Complete protease inhibitor cocktail (Roche Applied Science, Indianapolis, Ind.), then processed with a Qiashredder™ (Qiagen, Valencia, Calif.) for 1 minute and frozen on dry ice. Samples were diluted with 6×SDS sample buffer and then boiled for 5 min. Approximately 30 μl of this mixture was loaded per lane on a Criterion Precast 4-12% Tris-HCl gel (Bio-Rad, Hercules, Calif.), electrophoresed, and transferred to nitrocellulose membranes (Bio-Rad, Hercules, Calif.). The membranes were blocked for 1 hour at room temperature using blocking buffer (LI-COR Biosciences, Lincoln, Nebr.), then incubated overnight at 4° C. with antibodies against either BCL-10, IRF4, CRBN or β-actin. Membranes were washed and incubated with IRDye Secondary Antibodies (1:30,000) for 1 hour at room temperature. A standard protocol was then followed for signal detection, using the Odyssey® Infrared Imaging System and software (LI-COR Biosciences, Lincoln, Nebr.).
To understand the molecular mechanism of lenalidomide on ABC-DLBCL cells, the effects of lenalidomide on IRF4 expression in these cells were investigated. […] Lenalidomide-induced decrease of IRF4 expression occurred as early as 1 day of drug treatment, with similar kinetics to that of the inhibitors (zVRPR-fmk and LY-333,531, respectively) of MALT1 and PKCβ, two key enzymes involved in NF-κB activation upon BCR engagement in B cells.

[6] = test system: CARD11-BCL-10-MALT1 (CBM) complex; test: MALT1-induced BCL-10 cleavage (CBM complex activity) in ABC-DLBCL cells; assay type: cell-based; conditions: OCI-Ly3 cells
Protocol: as §1
This mutation has been reported to cause constitutive formation and activation of CARD11-BCL-10-MALT1 (CBM) complex of BCR signaling pathway, leading to NF-κB overactivation in lymphoma cells. See Lenz, G., et al., Science 2008, 319: 1676-9; Thome, M. et al., Cold Spring Harb Perspect Biol. 2010; 2: a003004. To investigate the potential involvement of CBM complex in lenalidomide-induced IRF4 inhibition in these cells, the effect of lenalidomide on the complex activity was examined by measuring MALT1 paracaspase enzymatic activity. MALT1 is activated upon association with BCL-10 and CARD11 to form active CBM complex and then cleaves its binding partners, such as BCL-10.

[7] = biological target: T1, CRBN (Homo sapiens, UniProt Q96SW2); test: Binding of compounds to CRBN
[8] = test system: U266B1 cells; test: Cell cycle progression (cells in S phase) in siRNA-transfected U266B1 cells; assay type: cell-based; conditions: control mock and negative control siRNA-transfected cells; average of 3 days of treatment; pomalidomide 1 μM, lenalidomide 10 μM
Protocol: Drugs such as lenalidomide and pomalidomide have direct anti-proliferative activity against MM cells by inducing cell cycle arrest in G1 phase, followed by a decrease in viability. To study the role of CRBN in lenalidomide and other drugs anti-proliferative activities, H929 and U266B1 cells, two sensitive myeloma lines, were transfected with CRBN-siRNAs or control siRNAs for 24, 48, 72 and 96 hours. Cells were treated 24 h after transfection with DMSO (0.1%), pomalidomide (1 μM) and lenalidomide (10 μM) for 1, 2, 3 days to evaluated the compound effect on CRBN protein, mRNA expression and the effect on cell cycle and proliferation. […] CRBN down regulation was confirmed by RT-PCR and Western blot using the CRBN70 antibody (FIG. 1).
Knockdown of CRBN markedly abrogated the lenalidomide and pomalidomide-induced delay in cell cycle progression in U266B1 cells. Id.

[9] = test system: CRBN; test: CRBN mRNA and protein expression after drug treatment (RT-PCR, Western blot); assay type: cell-based; conditions: H929 and U266B1 cells; pomalidomide 1 μM, lenalidomide 10 μM
[10] = test system: p21^WAF-1; test: p21WAF-1 mRNA and protein levels in U266B1 cells; assay type: cell-based; conditions: U266B1, control mock and negative control siRNA-transfected cells; pomalidomide 1 μM, lenalidomide 10 μM
Protocol: To further investigate the effects of CRBN on the cell cycle arrest induced by drugs we used RT-PCR and Western blot analysis to measure the levels of key cell cycle and apoptotic regulators. U266B1 cells were transfected with mock, negative control siRNA, CRBN-siRNA-7 and CRBN-siRNA-11 for 24, 48, 72 and 96 h (FIG. 3A). Cells were treated 24 h after transfection with DMSO (0.1%), pomalidomide (1 μM) and lenalidomide (10 μM) for 1, 2, 3 days and the effect on mRNA and protein levels of the cyclin-dependent kinase (CDK) inhibitor p21^WAF-1 were evaluated. It has been shown that lenalidomide- and pomalidomide-induced cell cycle arrest is dependent on up-regulation of p21^WAF-1 in […]. […] However, knockdown of CRBN prevents the induction of p21^WAF-1 indicating the successful abrogation of G1 arrest and renewal of S phase progression (FIGS. 3C & 3D).

[11] = test system: U266B1 cells; test: Gene expression profile by microarray in U266B1 cells; assay type: cell-based; conditions: negative control siRNA-transfected U266B1 cells; pomalidomide 1 μM, lenalidomide 10 μM; ±1.7 fold, P<0.05
Protocol: Gene expression profile using microarray technology identified 759 or 609 genes differentially modulated in negative control siRNA-transfected U266B1 cells treated with pomalidomide (1 μM) or lenalidomide (10 μM) compared to DMSO treated control (±1.7 fold; P<0.05 ANOVA p-value) (FIGS. 5A & 5B).

[12] = test system: poly-ubiquitin chains; test: Global polyubiquitination by immunofluorescence in H929 cells; assay type: cell-based; conditions: 1 μM, 30 minutes
Protocol: Specific antibodies for poly-ubiquitin chains were used to study the effect of immunomodulatory drugs on global levels of ubiquitination. H929 cells were treated with lenalidomide (1 μM), pomalidomide (1 μM) or proteasome inhibitor MG132. After 30 minutes cells were process for immunofluorescence. Global levels of K63-linked polyubiquitination were quantified by Cellomics.

[13] = test system: U266; test: Ubiscan ubiquitinated peptide quantification in U266; assay type: cell-based
From the text: The effects of lenalidomide and pomalidomide on protein ubiquination were investigated using CST Ubiscan technology. Treated samples were sent to Cell Signaling Technology for ubiquinated peptide enrichment and quantification by LC/MS/MS. […] In the MG132 combo, more ubiquinated peptides are observed (compared with their controls). […] These peptides correspond to 176 unique proteins. Top few groups are: nucleosome, chromatin, protein-DNA complex assembly, Histone H2A. Among the 176 proteins, we found five proteins that belong to “ubiquitin-protein ligase activity” category, they are MDM2, HERC2, UBE2D3 (only by pomalidomide), UBE2N (lenalidomide only), UBE2M (both). Results for hits categorized by conditions are shown in FIGS. 8 & 9 (without MG132) and FIGS. 10 & 11 (with MG132).

[14] = test system: TNF; test: TNF inhibition by Compound A; assay type: cell-based
[15] = test system: Jurkat IL-2; test: Jurkat IL-2 induction by Compound A; assay type: cell-based
[16] = biological target: T1, CRBN; test: Denaturing immunoblot with CGN-6-4-5; assay type: binding; parameters: endogenous in cells; host or cells: DF15 myeloma cells (endogenous); HEK293 cells expressing recombinant flag-tagged CRBN on the same blot
Protocol: CGN-6-4-5 was diluted 1:10,000 dilution in 0.1% Tween PBS buffer. An exemplary immunoblot with myeloma cells containing endogenous CRBN (DF15), DF15R with no CRBN and HEK293 cells expressing recombinant flag-tagged CRBN is shown in FIG. 38. Peptide neutralization was performed by combining antibody with a five-fold (by weight) excess of blocking peptide in 500 μl PBS and incubating with constant rotation at room temperature for 2 hours.

[17] = H929 cells with knockdown of CRBN
[18] = control mock and negative control siRNA-transfected H929 cells

T1 sequence (Q96SW2 whole entry): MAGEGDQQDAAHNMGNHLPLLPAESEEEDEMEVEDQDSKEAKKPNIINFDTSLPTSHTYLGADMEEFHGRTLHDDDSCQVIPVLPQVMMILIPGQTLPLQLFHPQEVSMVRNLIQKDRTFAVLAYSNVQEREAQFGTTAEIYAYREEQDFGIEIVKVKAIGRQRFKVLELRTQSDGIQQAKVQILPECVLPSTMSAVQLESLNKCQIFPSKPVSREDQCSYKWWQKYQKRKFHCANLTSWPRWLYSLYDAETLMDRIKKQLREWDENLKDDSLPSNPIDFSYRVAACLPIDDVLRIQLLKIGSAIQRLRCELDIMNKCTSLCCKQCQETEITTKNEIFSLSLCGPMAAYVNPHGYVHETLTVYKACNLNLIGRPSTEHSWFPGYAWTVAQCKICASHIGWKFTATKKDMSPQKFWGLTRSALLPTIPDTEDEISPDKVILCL

Molecule: Cc1nc2cccc(N)c2c(=O)n1C1CCC(=O)NC1=O (stereo not drawn) [Compound B, 3-(5-amino-2-methyl-4-oxo-4H-quinazolin-3-yl)-piperidine-2,6-dione]
- delay in cell cycle progression (decrease of the number of cells in S phase) [1, 17]: 22%
- delay in cell cycle progression (decrease of the number of cells in S phase) [1, 18]: 65%
- phosphorylation of pRB [2]: decreased
- total level of protein IRF4 [3]: decreased
- Ub-proteins increased in abundance [4]: IKZF3, RPL19, PCM1 and NEDD8
- proteins decreased in abundance [4]: GNB2L1 and HNRNPR
- ubiquinated peptides of greater abundance vs. DMSO control [4]: SECTM1 and ZC3H15

Molecule: CN(C)C[C@@H]1CCn2cc(c3ccccc32)C2=C(C(=O)NC2=O)c2cn(c3ccccc23)CCO1 [PKCβ inhibitor, LY-333,531]
- IRF4 levels [5]: neither lenalidomide nor the PKCβ inhibitor had any appreciable effect
- BCL-10 cleavage [6]: neither the PKCβ inhibitor nor lenalidomide had any effect

Molecule: zVRPR-fmk [MALT1 inhibitor]
- IRF4 levels [5]: complete inhibition

Molecule: C[C@]1(N2C(=O)c3cccc(N)c3C2=O)CCC(=O)NC1=O [S-methyl-pomalidomide]
- affinity for CRBN (enantiomers compared) [7]: greater affinity for CRBN than R-methyl-pomalidomide

Molecule: Nc1cccc2c1C(=O)N(C1CCC(=O)NC1=O)C2=O (stereo not drawn) [pomalidomide, 4-amino-2-(2,6-dioxopiperidin-3-yl)-1H-isoindole-1,3-dione]
- delay of cell cycle progression, measured as the decrease of the number of cells in S phase [8]: 50%
- delay in cell cycle progression (decrease of the number of cells in S phase) [1, 17]: 15%
- delay in cell cycle progression (decrease of the number of cells in S phase) [1, 18]: 70%
- mRNA and protein expression of CRBN [9]: affected neither mRNA nor protein expression of CRBN significantly
- p21 level [10]: up-regulated
- phosphorylation of pRB [2]: decreased
- total level of protein IRF4 [3]: decreased
- genes differentially modulated compared to DMSO treated control [11]: 759 genes
- K-63-linked ubiquitination [12]: but not K-63-linked ubiquitination
- total K48-linked polyubiquitination [12]: decrease
- Ub-proteins increased in abundance [13]: IKZF3, RPL19, PCM1 and NEDD8
- proteins decreased in abundance [13]: GNB2L1 and HNRNPR

- binding to CRBN [7]: did not
Molecule: O=C1NC(=O)c2ccccc21 [pthalimide]

- IC50 [14]: 622 nM
Molecule: Cl.NCCC(=O)NCc1cccc2c1C(=O)N(C1CCC(=O)NC1=O)C2=O (stereo not drawn) [Compound A]
- Jurkat IL-2 EC200 [15]: 3.47 µM

B1: CGN-6-4-5: rabbit monoclonal anti-CRBN antibody, heavy chain SEQ ID NO:9, light chain SEQ ID NO:11 (antibody)
heavy: METGLRWLLLVAVLKGVQCQSVEESGGRLVTPGTPLTLTCTVSGFSLSRYGVSWVRQAPGKGLEHIGYIYSDPGMTFYATWAKGRFTISKTSSTTVDLKMTSPTIEDTATYFCARGTPLASYSTWGPGTLVTISLGQPKAPSVFPLAPCCGDTPSSTVTLGCLVKGYLPEPVTVTWNSGTLTNGVRTFPSVRQSSGLYSLSSVVSVTSSSQPVTCNVAHPATNTKVDKTVAPSTCSKPTCPPPELLGGPSVFIFPPKPKDTLMISRTPEVTCVVVDVSQDDPEVQFTWYINNEQVRTARPPLREQQFNSTIRVVSTLPIAHQDWLRGKEFKCKVHNKALPAPIEKTISKARGQPLEPKVYTMGPPREELSSRSVSLTCMINGFYPSDISVEWEKNGKAEDNYKTTPAVLDSDGSYFLYSKLSVPTSEWQRGDVFTCSVMHEALHNHYTQKSISRSPGK
light: MDTRAPTQLLGLLLLWLPGATFAQVLTQTPASVSAAVGGTVTINCQSSENIYKNNYLSWFQQKPGQPPKLLIYQASTLASGVPSRFKGSGSGTRFSLTISDLECDDAATYYCAGGYSGNIFTFGGGTEVVVKGDPVAPTVLIFPPAADQVATGTVTIVCVANKYFPDVTVTWEVDGTTQTTGIENSKTPQNSADCTYNLSSTLTLTSTQYNSHKEYTCKVTQGTTSVVQSFNRGDC
- recognition of CRBN on denaturing immunoblots [16]: specifically recognizes the full-length 51 kDa human CRBN protein
